From patent US12115151B2, “Method of treatment of p53 WT tumors” (Dana-Farber Cancer Institute, Inc., priority 2018, dated 2024)
Several values for one entry are separate records, joined by “and”; a condition that tells them apart may be missing. Equal values may be shown once. Entries after “also recorded” stand apart in the source; their conditions may differ.

How the values were obtained:
[1] = system: MKL-1 MCC cells; assay: XTT cell viability assay and synergy testing, MKL-1 cells; assay type: cell-based; details: 96 hours; for Response-rep1 / Response-rep2: HDM201 0 nM; for relative viability (XTT), untreated = 1: combinations with a fixed amount of Lenalidomide (5 uM), replicate columns; for Response: relative viability vs untreated
Experimental: Cell viability assays were performed using Cell Proliferation Kit II (XTT) (Roche) according to the manufacturer's instructions and BH3 profiling was described in Pallis et al. (36). Synergy testing was performed using Compusyn and Synergyfinder (28, 29).
The XTT assay was performed to determine the relative viability (% response) normalized to untreated cells.

[2] = system: p53; assay: Western blot of p53 activation in MKL-1 cells; assay type: cell-based; details: 24-40 hours
Experimental: (§1) Confluent cultures of cells were washed with ice-cold phosphate-buffered saline (PBS) and resuspended in EBC lysis buffer (50 mM Tris, pH 8.0, 150 mM NaCl, 0.5% NP-40, 1:10,000-mercaptoethanol, 0.5 mM EDTA) for 10 min on ice and then centrifuged. Clarified lysates were incubated overnight with antibodies and magnetic protein A/G beads (PureProteome magnetic beads, EMD Millipore). […] Mouse monoclonal antibodies Ab3 and Ab5 against MCV T antigens were generated against MCV large T antigen residues 1 to 260 and produced as a glutathione S-transferase (GST) fusion protein in bacteria (17). Quantitative western blotting was performed using the Odyssey near-infrared system (Li-Cor Biotechnology).

[3] = target: T1, CK1α (Homo sapiens, UniProt P48729); assay: Western blot of CK1α protein levels in MKL-1 cells; assay type: cell-based; details: IMiD 10 μM
Experimental: Confluent cultures of cells were washed with ice-cold phosphate-buffered saline (PBS) and resuspended in EBC lysis buffer (50 mM Tris, pH 8.0, 150 mM NaCl, 0.5% NP-40, 1:10,000-mercaptoethanol, 0.5 mM EDTA) for 10 min on ice and then centrifuged. Clarified lysates were incubated overnight with antibodies and magnetic protein A/G beads (PureProteome magnetic beads, EMD Millipore). […] Quantitative western blotting was performed using the Odyssey near-infrared system (Li-Cor Biotechnology).

[4] = target: T1, CK1α; assay: Western blot of CK1α in UISO cells; assay type: cell-based; details: lenalidomide 10 μM, 24 hours
From the text: Of note, UISO has less MDM2 and MDM4 proteins than MKL-1.

[5] = system: MDM4 binding to p53; assay: Immunoprecipitation of MDM4, p53 and CK1α from MKL-1 lysates; assay type: cell-based; details: MKL-1 cells; nutlin-3 5 μM, lenalidomide 10 μM, 40 hours
Experimental: as §1

[6] = system: MKL-1 MCC xenografts; assay: Xenograft efficacy study; details: individual animals, oral daily, HDM201 40 mg/kg and/or lenalidomide 50 mg/kg; for Tumor Volume Change, Abs Ch = T − T0: tumor volumes in mm3
From the text: The study was terminated when the tumor volume reached the maximum permissible size of 2000 mm3.

T1 sequence (P48729 whole entry): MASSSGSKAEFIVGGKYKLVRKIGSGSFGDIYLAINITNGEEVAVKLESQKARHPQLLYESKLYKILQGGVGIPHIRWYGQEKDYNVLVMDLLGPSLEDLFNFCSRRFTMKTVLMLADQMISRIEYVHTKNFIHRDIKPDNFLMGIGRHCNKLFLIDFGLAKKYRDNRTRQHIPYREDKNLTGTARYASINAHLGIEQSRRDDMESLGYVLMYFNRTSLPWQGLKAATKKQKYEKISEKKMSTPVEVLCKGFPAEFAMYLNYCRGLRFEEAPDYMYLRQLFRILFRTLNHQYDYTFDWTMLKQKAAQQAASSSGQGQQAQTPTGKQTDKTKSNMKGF

## Nc1cccc2c1CN(C1CCC(=O)NC1=O)C2=O (racemic) [Lenalidomide, (RS)-3-(7-Amino-3-oxo-1H-isoindol-2-yl)piperidin-2,6-dion]
[1]; Lenalidomide 5000 nM
  Response-rep1: 98.9539%
  Response-rep2: 97.73%
[1]; Lenalidomide 10000 nM
  Response-rep1: 83.3296%
  Response-rep2: 76.26%
[1]; Lenalidomide 15000 nM
  Response-rep1: 69.78%
  Response-rep2: 67.82%
[1]; Lenalidomide 18000 nM
  Response-rep1: 25.1812%
  Response-rep2: 49.26%
[1]; Nutlin-3 or RG7388 level 25 (unit not given)
  relative viability (XTT), untreated = 1: 1.143 and 0.8845 and 1.022
[1]; Nutlin-3 or RG7388 level 50 (unit not given)
  relative viability (XTT), untreated = 1: 1.089 and 0.9384 and 1.081
[1]; Nutlin-3 or RG7388 level 75 (unit not given)
  relative viability (XTT), untreated = 1: 1.027 and 1.061 and 1.086
[1]; Nutlin-3 or RG7388 level 90 (unit not given)
  relative viability (XTT), untreated = 1: 1.011 and 0.945 and 0.9521
[1]; Lenalidomide 5000 nM alone
  Response: 104.85%
[1]; Lenalidomide 10000 nM alone
  Response: 105.06%
[1]; Lenalidomide 15000 nM alone
  Response: 107.06%
[1]; Lenalidomide 18000 nM alone
  Response: 100.64%
[2]
  p53 activation (p53, P-p53, Ac-p53, p21, PUMA levels): modest positive effect on p53 levels
[3]
  CK1α protein levels: reduces CK1α protein rapidly; also recorded: decreases CK1α protein levels
[3]; listed as lenalidomide
  CK1α protein levels: levels rapidly decreased
[4]
  CK1α levels: depletes CK1α
[4]; listed as lenalidomide
  CK1α levels: decreased the CK1α levels
[5]
  MDM4 binding to p53 (co-immunoprecipitation): reduces MDM4 binding to p53
[6]; day 0
  Tumor Volume Change, % Ch = (T − T0)/T0: 0.00%
  Tumor Volume Change, Abs Ch = T − T0: 0.00
[6]; day 4
  Tumor Volume Change, % Ch = (T − T0)/T0: 74.88% and 101.33% and 102.10% and 99.96% and 150.37% and 52.58% and 63.66% and 71.12%
  Tumor Volume Change, Abs Ch = T − T0: 144.53 and 151.67 and 182.72 and 171.42 and 196.53 and 107.98 and 82.85 and 113.80
[6]; day 7
  Tumor Volume Change, % Ch = (T − T0)/T0: 172.14% and 170.30% and 232.85% and 199.00% and 277.21% and 108.30% and 219.88% and 209.85%
  Tumor Volume Change, Abs Ch = T − T0: 332.29 and 254.90 and 416.69 and 341.29 and 362.30 and 222.38 and 286.16 and 335.77
[6]; day 11
  Tumor Volume Change, % Ch = (T − T0)/T0: 532.35% and 513.08% and 584.49% and 475.00% and 680.10% and 321.83% and 431.10% and 501.46%
  Tumor Volume Change, Abs Ch = T − T0: 1027.58 and 768.00 and 1045.97 and 814.62 and 888.86 and 660.89 and 561.06 and 802.36
[6]; day 14
  Tumor Volume Change, % Ch = (T − T0)/T0: 811.07% and 861.89% and 936.62% and 702.42% and 1182.50% and 538.29% and 804.69% and 779.36%
  Tumor Volume Change, Abs Ch = T − T0: 1565.59 and 1290.11 and 1676.13 and 1204.65 and 1545.48 and 1105.37 and 1047.26 and 1246.99
[6]; day 18
  Tumor Volume Change, % Ch = (T − T0)/T0: 1406.04% and 1123.01% and 1595.67% and 1146.29% and 1544.08% and 774.41% and 1719.65% and 1318.82%
  Tumor Volume Change, Abs Ch = T − T0: 2714.05 and 1680.96 and 2855.54 and 1965.88 and 2018.05 and 1590.25 and 2238.02 and 2110.15
